In patent US20070203225A1, “METHOD OF INCREASING ENDOGENOUS ADIPONECTIN PRODUCTION AND LEPTIN PRODUCTION” (priority 2001, published 2007):
Where two headings read alike, the source gives them in different places.

Legend:
isolated rat adipocytes [1] = experiment: Glucose oxidation: incorporation of 14C-glucose into CO2 by isolated rat adipocytes; format: cell-based; conditions: L-carnitine
Method: Substrate Oxidation: Oxidation is measured using a modification of the method of Rodbell (Rodbell, 1964) and a modification of the cell culture system described by Bottcher and Furst (Bottcher, 1996). Briefly, adipocytes are isolated, counted and sized as previously described. Adipocytes are plated as described except they are placed in a sterile 20 ml scintillation vial instead of a well. Two ml of treatment media containing [U-^14C]-substrate (0.3 uCi/ml; glucose, fatty acids, malate, fumarate, pyruvate) is added to the vials. The vials are filled with 95% O2-5% CO2 gas and capped with rubber stoppers fitted with a hanging center well. Each well contains a 2×8 cm strip of Whatman No. 1 paper. Vials are maintained at 37° C. for 48 hr. After 48 hr, a sample of media is removed from each vial using a 4 inch, 23 gauge needle. Using another syringe and 23 gauge needle, 200 ul of sodium benzethonium is placed onto the paper strip and hanging well to capture CO2. Concentrated sulfuric acid is added to the vial in order to lyse cells and liberate all CO2 from the collagen matrix. After 24 hours, the hanging well and paper are transferred to another vial containing scintillation fluid and counted. The data are expressed as % DPM recovered as CO2 of the total DPM remaining in the media at 48 hours and as micromoles of substrate oxidized over time.

isolated rat adipocytes [2] = experiment: Leptin secretion/production by isolated cultured rat adipocytes (RIA); format: cell-based; conditions: Carnitine 20 mM, n=12
Method: (§1) Cell isolation/preparation: Adipocytes are prepared from epididymal fat pads from male Sprague-Dawley rats weighing 300-600 g. Epididymal fat depots are resected from halothane anesthetized rats under aseptic conditions and adipocytes are isolated by collagenase digestion by the Rodbell method (Rodbell M. Metabolism of isolated fat cells. I. Effects of hormones on glucose metabolism and lipolysis. J Biol Chem. 1964; 239: 375-380), with minor modifications as previously described (Mueller W M, Gregoire F M, Stanhope K L, Mobbs C V, Mizuno T M, Warden C H, Stem J S, Havel P J. Evidence that glucose metabolism regulates leptin secretion from isolated adipocytes. Endocrinology 139: 551-558, 1998; Mueller W M, Stanhope K L, Gregoire F, Evans J L, Havel P J. Effects of metformin and vanadium on leptin secretion from cultured rat adipocytes. Obesity Res. 8: 530-539, 2000; Medina E A, Stanhope K L, Mizuno T M, Mobbs C V, Gregoire F, Hubbard N E, Erickson K L, Havel P J. Effects of tumor necrosis factor alpha on leptin secretion and gene expression: relationship to changes of glucose metabolism in isolated rat adipocytes. Int J Obes Relat Metab Disord. 23: 896-903, 1999.). The isolated adipocytes are then incubated for 30 minutes at 37 C before being plated and cultured on Matrigel-coated plates.
(§2) Adipocyte Culture: Adipocytes are maintained in culture anchored to a basement membrane matrix (Matrigel, Becton Dickinson, Franklin Lakes, N.J.) or collagen from Cohesion Technologies, (Palo Alto, Calif.). Although all in vitro systems have inherent advantages and disadvantages, advantages of this system compared with cultures containing free-floating adipocytes are that the matrix simulates their normal basement membrane attachment and that the cells are maintained in close proximity to each other, allowing direct cell to cell contact. Together the cell contact and basement membrane attachment help to maintain differentiation, since adipocytes have a strong tendency to dedifferentiate in long-term (>24 h) culture. In addition, the matrix and the small amount of serum in the media both contain growth factors, which are also likely to help in maintaining cell differentiation. Furthermore, the adipocytes in this system are not exposed to toxic levels of oxygen at the interface of the media and the incubator atmosphere, as opposed to free-floating adipocytes which aggregate at the surface of the media. An advantage of the system over those containing minced adipose tissue is that all of the cells in the culture are equally exposed to the nutrients and the oxygen dissolved in the media. Thus, although clearly different from the in vivo situation, this system provides a more physiological environment than most systems for maintaining adipocytes in long-term culture.
(§3) In culturing each suspension, Matrigel is first thawed on ice to a liquid and uniformly applied to the surface of culture dishes (300 μl Matrigel/35 mm well). After the incubation period, 150 μl of the adipocyte suspension (2:1 ratio of packed cells to media) are plated on the Matrigel or collagen matrix. Adipocytes from each suspension are thoroughly mixed with a transfer pipette before plating to insure that a similar number adipocytes with a similar size distribution are added to the control and experimental wells for each suspension. The warmth of the added cells and buffer causes the Matrigel to gel around the adipocytes, or the neutralization of the acidic pH of the collagen solution to 7.0 solidifies the collagen, and both of these techniques effectively anchor the adipocytes to the culture dish. After a 30 minute incubation at 37° C., 2 ml of warm culture medium is added. The cells are maintained in an incubator at 37° C. for 96 hours with 6% CO2. Aliquots of adipocytes from each animal are divided into wells, with the different concentrations of insulin or other agents to be tested. In each plate an appropriate control well contains adipocytes from the same animal. […]

[3] = tested on: isolated, cultured adipocytes; experiment: Fatty acid oxidation: incorporation of 14C-labeled oleate into CO2 by cultured adipocytes; format: cell-based, rat
Method: Experiments were also carried out to examine fatty acid oxidation by measuring the incorporation of ^14C-labeled oleate into CO2. […] Therefore, to further examine the potential role of fatty acid oxidation adipocytes were incubated with L-carnitine, a cofactor of the rate-limiting step for fatty acid transport into the mitochondria via carnitine-palmitoyl-tranferase (CPT).
Substrate Oxidation: Oxidation is measured using a modification of the method of Rodbell (Rodbell, 1964) and a modification of the cell culture system described by Bottcher and Furst (Bottcher, 1996). Briefly, adipocytes are isolated, counted and sized as previously described. Adipocytes are plated as described except they are placed in a sterile 20 ml scintillation vial instead of a well. Two ml of treatment media containing [U-^14C]-substrate (0.3 uCi/ml; glucose, fatty acids, malate, fumarate, pyruvate) is added to the vials. The vials are filled with 95% O2-5% CO2 gas and capped with rubber stoppers fitted with a hanging center well. Each well contains a 2×8 cm strip of Whatman No. 1 paper. Vials are maintained at 37° C. for 48 hr. […] After 24 hours, the hanging well and paper are transferred to another vial containing scintillation fluid and counted. The data are expressed as % DPM recovered as CO2 of the total DPM remaining in the media at 48 hours and as micromoles of substrate oxidized over time.

isolated rat adipocytes [4] = experiment: Glucose utilization (uptake) by isolated cultured rat adipocytes; format: cell-based; conditions: Carnitine 20 mM
Method: as §1, §2, §3

isolated rat adipocytes [5] = experiment: Incorporation of glucose carbon into triglyceride in cultured adipocytes; format: cell-based; conditions: Carnitine 20 mM
Method: Incorporation of Glucose Carbon into Triglyceride: To measure glucose incorporation into triglyceride, cultures are exposed to media containing 0.01 uCi/ml of ^14C-glucose. After 96 hr, media and extracellular lipid is removed from the well and methanol added. Then scrape the collagen-cell matrix from the well and transfer into a 50 ml glass tube. Rinse the well and scrape again in methanol to assure complete transfer of cells. Total triglycerides will be extracted using the Folch method (Folch, 1957). An aliquot of the lipid extract will be placed into vials containing scintillation fluid then radioactivity will be measured.
The first measurement is used to calculate the amount of glucose incorporated into triglycerides. Another aliquot of the lipid extract is placed into pre-weighed aluminum pans to determine the total amount of triglyceride per well. The remaining lipid is saponified and acidified to separate the glycerol and fatty acids. An aliquot of the lipid extract is placed into vials containing scintillation fluid and counted. This second count represents the ^14C-glucose incorporation into fatty acids. By subtraction, the amount that was incorporated into triglyceride though glycerol is also determined. Glucose incorporation into triglyceride and into the fatty acid portion of the triglyceride are calculated by multiplying disintegration per min by total ug of glucose/well over the total DPM/well.

isolated rat adipocytes [6] = experiment: Lactate production and proportion of glucose anaerobically metabolized to lactate in isolated cultured rat adipocytes; format: cell-based; conditions: Carnitine 20 mM
Method: as §1, §2, §3

isolated rat adipocytes [7] = conditions: metformin 1.0 mM with 0.16 nM insulin, n=18; cited from earlier work
isolated rat adipocytes [8] = conditions: metformin 1.0 mM with 0.16 nM insulin, n=18; cited from earlier work; remark: listed apart in the source
isolated rat adipocytes [9] = conditions: metformin 1.0 mM with 0.16 nM insulin, n=18; cited from earlier work; remark: listed apart in the source

Compound: C[N+](C)(C)C[C@H](O)CC(=O)[O-] [Carnitine, L-carnitine]
- effect on glucose oxidation (in words) (isolated rat adipocytes [1]): inhibited
- effect on leptin secretion (in words) (isolated rat adipocytes [2]): modestly increased
- increase of fatty acid oxidation ([3]; Carnitine 20 mM, n=7, percent of control): 50%
- effect on fatty acid oxidation (in words) ([3]; L-carnitine): increased
- effect on glucose utilization (in words) (isolated rat adipocytes [4]): inhibited
- effect on incorporation of labeled glucose into TG/lipid (in words) (isolated rat adipocytes [5]): inhibited
- effect on proportion of glucose metabolized to lactate (in words) (isolated rat adipocytes [6]): increased

Compound: CN(C)C(=N)N=C(N)N [metformin]
- effect on proportion of glucose metabolized to lactate (in words) (isolated rat adipocytes [7]): increases
- effect on leptin secretion (in words) (isolated rat adipocytes [8]): inhibits
- effect on glucose utilization (in words) (isolated rat adipocytes [9]): increases
